In ChEMBL document CHEMBL5465560, “Selectivity Literature for EUbOPEN Chemogenomic Library” (2024) one finds % of inhibition, % of control and % binding data, which are given here for seven compounds.

Assay [1] concerns the target Sphingosine kinase 1 (Homo sapiens) (UniProt Q9NYA1). In words: Selectivity interaction (Adapta Assay) EUB0001632a SPHK1. The conditions noted are these: at 10 µM.
In a further assay the target is Misshapen-like kinase 1 (Homo sapiens, UniProt Q8N4C8). In words: Selectivity interaction (KinomeScan (DiscoverX)) EUB0000666a MINK1. The conditions noted are these: at 10 µM.
Assay [2] concerns the target T1, Serine/threonine-protein kinase 36 (Homo sapiens) (UniProt Q9NRP7).
T1 sequence (whole entry): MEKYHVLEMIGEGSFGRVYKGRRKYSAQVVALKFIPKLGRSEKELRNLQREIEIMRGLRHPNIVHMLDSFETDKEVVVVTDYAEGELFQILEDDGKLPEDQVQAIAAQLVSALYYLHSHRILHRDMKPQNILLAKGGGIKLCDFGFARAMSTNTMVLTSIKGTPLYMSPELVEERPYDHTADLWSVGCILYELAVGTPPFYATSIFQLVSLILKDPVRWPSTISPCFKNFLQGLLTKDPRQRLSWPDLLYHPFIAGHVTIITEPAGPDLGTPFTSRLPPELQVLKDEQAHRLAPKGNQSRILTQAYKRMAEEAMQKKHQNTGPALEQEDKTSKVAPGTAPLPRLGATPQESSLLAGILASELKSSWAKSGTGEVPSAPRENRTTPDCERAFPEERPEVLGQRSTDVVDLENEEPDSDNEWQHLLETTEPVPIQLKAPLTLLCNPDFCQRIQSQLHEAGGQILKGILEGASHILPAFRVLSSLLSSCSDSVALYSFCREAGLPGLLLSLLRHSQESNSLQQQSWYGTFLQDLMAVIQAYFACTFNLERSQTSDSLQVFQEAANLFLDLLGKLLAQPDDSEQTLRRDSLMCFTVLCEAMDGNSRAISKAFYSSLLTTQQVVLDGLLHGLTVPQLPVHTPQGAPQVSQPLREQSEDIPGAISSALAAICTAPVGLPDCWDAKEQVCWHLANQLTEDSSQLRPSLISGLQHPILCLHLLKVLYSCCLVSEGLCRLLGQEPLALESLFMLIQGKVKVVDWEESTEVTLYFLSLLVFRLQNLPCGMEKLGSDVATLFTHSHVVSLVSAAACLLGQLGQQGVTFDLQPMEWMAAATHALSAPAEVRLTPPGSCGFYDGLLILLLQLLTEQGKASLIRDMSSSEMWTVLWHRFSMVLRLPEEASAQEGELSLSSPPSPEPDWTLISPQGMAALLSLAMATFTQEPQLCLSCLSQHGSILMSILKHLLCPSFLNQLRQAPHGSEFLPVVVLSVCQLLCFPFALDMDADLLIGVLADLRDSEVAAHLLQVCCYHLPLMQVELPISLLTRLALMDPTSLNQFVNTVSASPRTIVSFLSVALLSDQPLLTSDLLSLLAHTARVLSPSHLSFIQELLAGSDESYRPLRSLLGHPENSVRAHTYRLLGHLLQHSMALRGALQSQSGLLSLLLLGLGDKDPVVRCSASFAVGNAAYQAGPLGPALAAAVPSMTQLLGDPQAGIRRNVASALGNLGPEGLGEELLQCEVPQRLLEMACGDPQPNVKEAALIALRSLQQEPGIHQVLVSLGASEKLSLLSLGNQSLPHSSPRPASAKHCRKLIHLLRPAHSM
The experiment in a line: Selectivity interaction (KinomeScan (DiscoverX)) EUB0000229b STK36. The following applies: at 10 µM.

Assay [3] deals with T2, Non-receptor tyrosine-protein kinase TNK1 (Homo sapiens) (UniProt Q13470).
T2 sequence (whole entry): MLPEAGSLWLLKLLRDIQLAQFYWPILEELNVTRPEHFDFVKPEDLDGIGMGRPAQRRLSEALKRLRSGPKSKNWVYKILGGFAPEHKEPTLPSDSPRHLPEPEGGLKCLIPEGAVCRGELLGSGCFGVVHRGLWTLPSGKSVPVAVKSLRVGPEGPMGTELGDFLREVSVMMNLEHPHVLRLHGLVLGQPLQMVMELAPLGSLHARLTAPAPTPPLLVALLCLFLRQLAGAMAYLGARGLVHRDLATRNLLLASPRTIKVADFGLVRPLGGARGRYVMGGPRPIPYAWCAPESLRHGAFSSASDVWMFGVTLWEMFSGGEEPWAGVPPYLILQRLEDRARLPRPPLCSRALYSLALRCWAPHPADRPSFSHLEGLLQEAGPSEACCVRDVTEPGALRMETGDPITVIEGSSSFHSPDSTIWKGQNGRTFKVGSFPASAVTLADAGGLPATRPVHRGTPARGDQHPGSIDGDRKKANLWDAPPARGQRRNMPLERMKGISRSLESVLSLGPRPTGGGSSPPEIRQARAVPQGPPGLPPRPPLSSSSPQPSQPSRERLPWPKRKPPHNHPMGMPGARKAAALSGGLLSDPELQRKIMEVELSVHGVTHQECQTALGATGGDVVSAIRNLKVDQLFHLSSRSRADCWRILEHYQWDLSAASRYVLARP
In words: Selectivity interaction (KinomeScan (DiscoverX)) EUB0000655a TNK1. The following applies: at 10 µM.

In assay [4] the target is Cyclin-dependent kinase 1 (Homo sapiens) (UniProt P06493). The experiment in a line: Selectivity interaction (ActivX KiNativ screen (ex vivo kinase selectivity in human PBMCs)) EUB0001619a CDK1. The following applies: PBMC, at 1 µM. The assay is classed as cell-based.
Assay [5] addresses Hepatocyte growth factor receptor (Homo sapiens, UniProt P08581). In words: Selectivity interaction (KinomeScan (DiscoverX)) EUB0001049a MET. The conditions noted are these: at 1 µM.
The target of assay [6] is T3, Receptor-interacting serine/threonine-protein kinase 1 (Homo sapiens) (UniProt Q13546).
T3 sequence (whole entry): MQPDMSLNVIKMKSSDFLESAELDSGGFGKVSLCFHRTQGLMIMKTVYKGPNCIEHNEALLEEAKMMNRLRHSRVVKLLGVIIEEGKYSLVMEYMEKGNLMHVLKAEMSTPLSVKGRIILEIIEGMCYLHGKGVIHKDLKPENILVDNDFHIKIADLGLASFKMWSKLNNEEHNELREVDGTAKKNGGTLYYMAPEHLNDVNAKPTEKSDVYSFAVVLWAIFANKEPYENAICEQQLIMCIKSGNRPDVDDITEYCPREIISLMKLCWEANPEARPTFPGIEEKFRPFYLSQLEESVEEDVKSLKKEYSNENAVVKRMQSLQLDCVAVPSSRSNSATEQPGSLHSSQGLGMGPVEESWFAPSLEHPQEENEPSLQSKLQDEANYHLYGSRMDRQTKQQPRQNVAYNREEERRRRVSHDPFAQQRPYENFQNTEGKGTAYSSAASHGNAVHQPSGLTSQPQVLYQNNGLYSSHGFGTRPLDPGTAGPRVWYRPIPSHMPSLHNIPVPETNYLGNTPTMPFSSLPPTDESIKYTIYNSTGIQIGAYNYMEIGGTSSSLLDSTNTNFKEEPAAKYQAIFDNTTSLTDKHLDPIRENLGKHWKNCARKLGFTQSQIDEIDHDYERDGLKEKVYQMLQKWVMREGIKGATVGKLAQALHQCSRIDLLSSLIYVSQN
In words: Selectivity interaction (KinomeScan (DiscoverX)) EUB0000695a RIPK1. The conditions noted are these: at 100 nM.

Assay [7] has as its target Serine/threonine-protein kinase mTOR (Homo sapiens, UniProt P42345). In words: Selectivity interaction (KinomeScan (DiscoverX)) EUB0000695a MTOR. The following applies: at 100 nM.

Hepatocyte growth factor receptor, sequence (P08581 whole entry): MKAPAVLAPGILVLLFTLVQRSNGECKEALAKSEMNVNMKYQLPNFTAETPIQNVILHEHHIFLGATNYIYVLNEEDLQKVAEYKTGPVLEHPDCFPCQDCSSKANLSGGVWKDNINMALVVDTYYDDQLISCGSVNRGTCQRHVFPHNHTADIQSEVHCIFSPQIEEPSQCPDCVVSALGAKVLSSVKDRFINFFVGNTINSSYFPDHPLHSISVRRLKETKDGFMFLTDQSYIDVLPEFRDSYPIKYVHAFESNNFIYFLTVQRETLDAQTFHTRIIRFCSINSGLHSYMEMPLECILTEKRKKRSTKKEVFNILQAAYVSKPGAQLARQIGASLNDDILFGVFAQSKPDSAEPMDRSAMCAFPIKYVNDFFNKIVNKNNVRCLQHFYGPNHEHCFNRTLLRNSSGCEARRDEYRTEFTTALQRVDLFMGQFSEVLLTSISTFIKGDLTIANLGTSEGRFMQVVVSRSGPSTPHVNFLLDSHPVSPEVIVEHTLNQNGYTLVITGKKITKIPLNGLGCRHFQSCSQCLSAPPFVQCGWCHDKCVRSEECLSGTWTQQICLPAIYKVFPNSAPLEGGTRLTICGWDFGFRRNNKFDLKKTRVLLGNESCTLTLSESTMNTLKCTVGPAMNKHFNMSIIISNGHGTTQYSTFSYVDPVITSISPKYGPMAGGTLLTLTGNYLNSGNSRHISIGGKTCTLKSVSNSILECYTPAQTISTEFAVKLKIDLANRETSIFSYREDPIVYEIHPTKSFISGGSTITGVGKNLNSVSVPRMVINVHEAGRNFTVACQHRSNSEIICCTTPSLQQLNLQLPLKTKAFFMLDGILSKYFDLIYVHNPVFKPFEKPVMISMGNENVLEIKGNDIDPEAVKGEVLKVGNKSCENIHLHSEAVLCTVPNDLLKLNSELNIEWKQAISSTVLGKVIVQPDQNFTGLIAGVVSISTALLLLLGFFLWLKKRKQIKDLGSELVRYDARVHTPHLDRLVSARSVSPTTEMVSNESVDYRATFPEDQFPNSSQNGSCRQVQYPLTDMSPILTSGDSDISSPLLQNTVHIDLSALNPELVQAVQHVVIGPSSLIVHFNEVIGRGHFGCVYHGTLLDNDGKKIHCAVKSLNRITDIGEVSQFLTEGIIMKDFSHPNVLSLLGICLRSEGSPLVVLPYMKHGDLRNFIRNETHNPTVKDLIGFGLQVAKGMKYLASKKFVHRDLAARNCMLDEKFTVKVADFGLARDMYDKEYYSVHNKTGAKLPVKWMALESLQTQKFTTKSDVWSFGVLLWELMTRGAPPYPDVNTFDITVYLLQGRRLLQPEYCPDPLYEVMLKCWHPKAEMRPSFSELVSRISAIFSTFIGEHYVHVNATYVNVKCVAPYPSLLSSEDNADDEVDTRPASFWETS
Misshapen-like kinase 1, sequence (Q8N4C8 whole entry, looked up): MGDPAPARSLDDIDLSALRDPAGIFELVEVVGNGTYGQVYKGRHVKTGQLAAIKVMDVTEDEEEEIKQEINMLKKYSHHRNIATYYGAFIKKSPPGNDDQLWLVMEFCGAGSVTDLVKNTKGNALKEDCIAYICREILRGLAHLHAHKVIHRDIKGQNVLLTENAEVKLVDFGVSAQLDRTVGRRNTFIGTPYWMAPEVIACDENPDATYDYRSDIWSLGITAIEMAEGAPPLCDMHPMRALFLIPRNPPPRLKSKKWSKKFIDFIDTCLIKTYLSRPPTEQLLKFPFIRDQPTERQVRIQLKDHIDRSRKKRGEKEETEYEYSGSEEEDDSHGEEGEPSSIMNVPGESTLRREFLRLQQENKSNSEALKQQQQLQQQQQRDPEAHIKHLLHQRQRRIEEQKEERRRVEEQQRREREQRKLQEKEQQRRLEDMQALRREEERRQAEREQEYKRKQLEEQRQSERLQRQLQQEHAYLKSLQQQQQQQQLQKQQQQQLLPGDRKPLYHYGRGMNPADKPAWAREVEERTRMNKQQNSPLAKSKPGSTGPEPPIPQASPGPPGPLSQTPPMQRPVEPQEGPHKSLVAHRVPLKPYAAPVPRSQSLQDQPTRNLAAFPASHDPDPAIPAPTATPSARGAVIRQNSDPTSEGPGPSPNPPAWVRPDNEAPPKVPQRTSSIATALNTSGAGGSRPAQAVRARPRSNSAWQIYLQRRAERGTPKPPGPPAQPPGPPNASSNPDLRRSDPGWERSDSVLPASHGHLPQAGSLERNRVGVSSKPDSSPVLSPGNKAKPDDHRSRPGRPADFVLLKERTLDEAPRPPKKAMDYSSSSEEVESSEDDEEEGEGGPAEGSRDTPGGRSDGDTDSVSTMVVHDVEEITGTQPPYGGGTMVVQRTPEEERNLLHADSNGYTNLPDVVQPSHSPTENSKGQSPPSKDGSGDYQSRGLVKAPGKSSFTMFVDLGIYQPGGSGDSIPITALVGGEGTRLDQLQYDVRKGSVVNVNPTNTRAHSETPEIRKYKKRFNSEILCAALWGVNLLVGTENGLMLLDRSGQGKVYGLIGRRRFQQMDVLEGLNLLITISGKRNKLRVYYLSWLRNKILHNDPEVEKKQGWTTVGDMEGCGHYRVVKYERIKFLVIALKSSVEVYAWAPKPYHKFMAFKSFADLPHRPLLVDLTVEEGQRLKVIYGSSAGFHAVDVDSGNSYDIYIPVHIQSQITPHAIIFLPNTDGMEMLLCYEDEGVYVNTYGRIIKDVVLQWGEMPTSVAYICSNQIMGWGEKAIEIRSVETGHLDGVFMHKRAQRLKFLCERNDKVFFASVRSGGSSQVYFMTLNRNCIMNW
Sphingosine kinase 1 (Homo sapiens), sequence (Q9NYA1 whole entry): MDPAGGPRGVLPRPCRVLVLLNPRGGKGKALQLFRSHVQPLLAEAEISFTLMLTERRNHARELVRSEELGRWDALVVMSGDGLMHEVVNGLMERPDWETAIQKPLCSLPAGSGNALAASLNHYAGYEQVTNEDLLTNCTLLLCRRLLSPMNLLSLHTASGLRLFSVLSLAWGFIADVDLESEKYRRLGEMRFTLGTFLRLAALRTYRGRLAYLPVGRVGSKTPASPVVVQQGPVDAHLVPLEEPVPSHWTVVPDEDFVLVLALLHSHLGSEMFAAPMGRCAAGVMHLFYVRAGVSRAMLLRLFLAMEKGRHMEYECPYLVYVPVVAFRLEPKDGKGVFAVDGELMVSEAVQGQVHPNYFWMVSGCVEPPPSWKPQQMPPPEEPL
Cyclin-dependent kinase 1 (Homo sapiens), sequence (P06493 whole entry, looked up): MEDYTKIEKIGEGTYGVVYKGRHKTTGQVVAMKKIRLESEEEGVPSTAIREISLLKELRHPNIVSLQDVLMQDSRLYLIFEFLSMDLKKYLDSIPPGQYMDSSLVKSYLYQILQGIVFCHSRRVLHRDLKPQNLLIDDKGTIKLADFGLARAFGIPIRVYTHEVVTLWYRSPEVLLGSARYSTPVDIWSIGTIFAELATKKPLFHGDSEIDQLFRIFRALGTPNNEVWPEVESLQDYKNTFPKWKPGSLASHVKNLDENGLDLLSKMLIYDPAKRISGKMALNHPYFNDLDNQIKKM

As for `Cn1cc(-n2cnc3c(NCc4nc5cc(Cl)c(Cl)cc5[nH]4)nc(N4CCOCC4)nc32)cn1`, the % of inhibition in assay [1] came to 53.7%.

For `O=C(NOC[C@H](O)CO)c1ccc(F)c(F)c1Nc1ccc(I)cc1F`, the % of control on Misshapen-like kinase 1 was 94%.

Consider `COc1cc(N(C)c2ccnc3ccc(C(F)(F)F)cc23)cc(OC)c1OC`, for which the % binding in assay [2] was determined as 100%.

In assay [3], `CN(C)CCOc1ccc(-c2nc(-c3ccncc3)c(-c3ccc4c(c3)CC/C4=N\O)[nH]2)cc1` came in with a % of control of 100%.

On to `N#Cc1cccc(-c2c[nH]c3ncnc(N4CCOCC4)c23)c1`, for which, in assay [4], the % of inhibition came out at 13%.

The compound `COc1cc(Nc2nc(C)cc(-c3cnn4nc(OC)ccc34)n2)cc(C(F)(F)F)c1` gave a % of control in assay [5] of 93%.

Turning to `Cc1cc(F)c(C(=O)Nc2cccc(-c3nncn3C(C)C)n2)cc1-n1cnc(C2CC2)c1`, the % of control in assay [6] came out at 89%; in assay [7], 100%.
